In series [1] the test system is aconitine-induced arrhythmia. Description: Antiarrhythmic effect on the aconitine-induced arrhythmia in anesthetized rats. The conditions noted are these: for ED50: Rattus norvegicus, iv, read-out: Antiarrhythmic effect ED 50; for Antiarrhythmic effect, maximum effect / maximum effect compared with barucainid, in words: rat; for Antiarrhythmic effect, maximum effect: i.v., maximum relative increase in the arrhythmogenic aconitine dose; for maximum effect compared with barucainid, in words: versus barucainid. Type of series: in vivo, male Sprague-Dawley rats. On the procedure:
The novel compounds have a powerful antiarrhythmic action and are useful for the therapy of cardiac arrhythmias. The pharmacological investigations to determine the antiarryhythmic action were carried out using the antiarrhythmic barucainid as a comparison.
(§1) The test animals used were male Sprague-Dawley rats weighing 180-300 g. Anesthesia was effected with 100 mg/kg of thiobutabarbital, administered intraperitoneally. To induce arrhythmias, aconitine was infused at a dosage rate of 5 μg per kg per min. The test substances were administered intravenously, directly before the beginning of the aconitine infusion. The parameter measured is the amount of aconitine which leads to the first signs of arrhythmias (disappearance of P, ventricular extrasystoles and tachycardia) in the ECG of the animals. In the case of untreated animals, the arrhythmogenic aconitine dose was 16.5±0.34 μg/kg (n=120). The dose which causes a 50% increase was determined from the linear relationship between log dose (mg/kg) of the test substances and the relative increase in the arrhythmogenic aconitine dose (Δ%).
The maximum effect achieved (Δ%) is evaluated as a further criterion of the antiarrhythmic efficacy.

The nature of series [2]: Toxic changes in the ECG and therapeutic index in the rat. It counts as in vivo. The conditions noted are these: in vivo, iv, quotient of ECG-toxic dose and antiarrhythmic ED 50. On the procedure:
as §1
(§2) The dose of test substance which causes toxic changes in the ECG (ST depression, disappearance of P, extrasystoles) was also determined. The quotient of the ECG-toxic dose and the antiarrhythmic ED 50 was evaluated as a measure of the therapeutic index of the novel compounds.

Series [3] has as its system ECG (ST depression, disappearance of P, extrasystoles). The description is as above. Type of series: in vivo. To be noted: i.v., toxic effect in the ECG (occurrence of extrasystoles). How it is done: as §1, §2

Structures are written as SMILES.

As to `Cc1nc(Cc2ccc(O)cc2)c2c(c1OCCCCNC(C)C)COC2` [Example 4, 4-(p-hydroxybenzyl)-6-methyl-7-(4-isopropylaminobutoxy)-1,3-dihydrofuro[3,4-C]pyridine], in series [1], the ED50 came to 2.69 mg/kg; the “Antiarrhythmic effect, maximum effect” value is given as 263 Δ %; the “maximum effect compared with barucainid, in words” value was “superior to barucainid”. In addition, in series [2], the selectivity ratio is 17.3. In series [3], the ECG-toxic dose is given as 46.4 mg/kg.
For the compound `Cc1nc(Cc2ccccc2)c2c(c1OCCCCNC(C)C)C(O)OC2.Cl.Cl` (centres unmarked) [Example 2, 1-hydroxy-4-benzyl-6-methyl-7-(4-isopropylaminobutoxy)-1,3-dihydrofuro[3,4-C]pyridine dihydrochloride], in series [1], the ED50 was found to be 0.468 mg/kg; the “Antiarrhythmic effect, maximum effect” value was 239 Δ %; the “maximum effect compared with barucainid, in words” value was “superior to barucainid”. In addition, the selectivity ratio in series [2] was more than 9.9. Also, the ECG-toxic dose in series [3] is more than 4.64 mg/kg.
With `Cc1nc(Cc2ccccc2)c(CO)c(CN2CCOCC2)c1OCCCCNC(C)C.Cl.Cl.Cl` [Example 1, 2-methyl-3-(4-isopropylaminobutoxy)-4-(1'-morpholinomethyl)-5-hydroxymethyl-6-benzylpyridine trihydrochloride], in series [1], the ED50 was 0.19 mg/kg and the “Antiarrhythmic effect, maximum effect” value was 111 Δ %. Besides, the selectivity ratio in series [2] stood at 11.3. Moreover, in series [3], the ECG-toxic dose was 2.15 mg/kg.
With `Cc1nc(Cc2ccccc2)c2c(c1OCCCCNC(C)C)COC2` [Barucainid, reference compound], in series [1], the ED50 stood at 1.95 mg/kg and the “Antiarrhythmic effect, maximum effect” value was 105 Δ %. Besides, in series [2], the selectivity ratio is 5.13. Further, the ECG-toxic dose in series [3] amounted to 10.0 mg/kg.
In the case of `Cc1nc(Cc2ccccc2)c2c(c1OCCCCNC(C)C)COC2O.Cl.Cl` (centres unmarked) [Example 3, 3-hydroxy-4-benzyl-6-methyl-7-(4-isopropylaminobutoxy)-1,3-dihydrofuro[3,4-C]pyridine dihydrochloride], in series [1], the ED50 stood at 0.695 mg/kg; the “Antiarrhythmic effect, maximum effect” value was 276 Δ %; the “maximum effect compared with barucainid, in words” value is recorded as “superior to barucainid”. The selectivity ratio in series [2] worked out at 14.4. Besides, the ECG-toxic dose in series [3] is given as 10 mg/kg.

The record behind these values is patent US4730042A, “Compounds 1 or 3-hydroxy-4-benzyl-6-methyl-7-(4-isopropylamino-butoxy)-1,3-dihydro[3,4- C]pyridine and 2-methyl-3-(4-isopropyl-aminobutoxy)-4-(1'-morphilinomethyl)-5-hydroxyme thyl-6-benzyl pyridine, useful for treating cardiac arrhythmias” (priority 1985, dated 1988).
